Here are results for five compounds from patent US20240341301A1 (The Regents of the University of Michigan, priority 2023, published 2024).

Data set [1] concerns murine donor hearts. Nature of the data set: Murine ex-vivo heart perfusion after cold preservation. Set-up: species or system mouse. The note with it: for ex vivo donor heart contractility / ex vivo donor heart relaxation: HDAC inhibitor in HTK, 16 hours cold preservation. The method, then: (§1) Male and female WT or Irg1^−/− mice (Jackson laboratories, Bar Harbor, ME) were anesthetized intraperitoneally with 80 mg/kg ketamine and 5 mg/kg xylazine, anticoagulated with heparin (2,000 U/kg iv), and the heart was rapidly exposed through a sternal incision. The aorta was cannulated and retrograde perfused in-situ with HTK solution±HDAC inhibitors. After cannulation, the heart dissected free, the left atrium was opened. For 4-OI (Cayman Chemical, 25374) experiments, donor mice were treated 4-OI (dissolved in 40% β-Cyclodextrin, 50 mg/kg intraperitoneally) or vehicle control (40% β-Cyclodextrin intraperitoneally) 2 hours prior to donor heart procurement. After dissection, the heart was stored at 4° C. with HTK or HTK with VPA for a pre-designated duration. The hearts were then mounted on a Radnoti mouse Langendorff apparatus (ADInstruments inc., Colorado Springs, CO) in constant-pressure mode (˜70 mmHg) with a modified Krebs-Henseleit buffer (KHB; in mM: 118 NaCl, 4.7 KCl, 1.25 CaCl2), 1.66 MgSO4, 24.88 NaHCO3, 1.18 KH2PO4, 5.55 glucose, and 2.0 Na-pyruvate). A balloon was placed in the LV through the left atrium and left ventricular diastolic pressure was set to ˜8 mmHg at initiation. The heart was perfused with modified Krebs-Henseleit buffer for 30 min to stabilize and then hemodynamics measurements were recorded. Myocardial temperature was maintained at 37° C. LabChart software (ADInstruments inc., Colorado Springs, CO) was used to record ventricular function, perfusion pressures, cardiac chamber temperature and myocardial temperature. After perfusing the heart for 60 minutes, the heart was removed from the ex-vivo perfusion apparatus for specimen collection. Tissue was immediately placed in liquid N2 or treated with 4% formalin.

In data set [2] the test system is HL-1 murine cardiomyocytes. The experiment in a line: HL-1 cardiomyocytes in HTK under normoxic or hypoxic conditions, Western blot. Format: cell-based, mouse. The note with it: for HO1 protein abundance / NRF2 / SOD1 protein abundance: normoxic and hypoxic conditions. The method, then:
HL-1 murine cardiomyocytes cells (Sigma-Aldrich, SCC065) were cultured in Claycomb Medium (Sigma-Aldrich, 51800C). […] The medium was then changed to cold HTK solution and incubated in an hypoxic incubation chamber (Stem cell technologies). The chamber cold hypoxic conditions consist premixed of 1% Oxygen and 5% Carbon dioxide gas (Cryogenic gases, Detroit MI) with cell culture at 4° C. for 2 hours. After cold preservation culture, the medium was changed to 37° C. DMEM at atmospheric conditions and cells were incubated for an additional 2 hours. Cell lysates were then collected for Western blot analysis.
In general terms: Immunoblotting shows a protein as a band on a membrane.

Data set [3] deals with murine donor hearts. The experiment in a line: Murine donor heart tissue staining and Western blot (oxidative stress, antioxidant proteins, cell death). The note with it: donor mice treated with 4-OI. On the set-up: species or system mouse. The method, then:
as §1

The next data set has as its system H9C2 cardioblast. Nature of the data set: Doxorubicin-treated H9C2 cardioblast. Format: cell-based. The settings on record: 1 μM doxorubicin. The method, then: FIG. 18. FIG. 4. […] The doxorubicin-induced cell death were evaluated by cleaved caspase 3 using western blot.
FIG. 19. FIG. 4. […] The 5-hmC level were detected using immunostaining.

The conditions of data set [4]: cited from earlier work.
Another data set concerns Irg1. Nature of the data set: Irg1 mRNA transcript expression in preserved murine donor hearts. Set-up: species or system mouse. The settings on record: 16 hours preservation without reperfusion and during ex vivo perfusion. The method, then: as §1
The subject of another data set is mice. Nature of the data set: Doxorubicin-induced cardiotoxicity in mice. It counts as in vivo, mouse. The note with it: 5 mg/Kg doxorubicin for 5 weeks, I.P. every 3.5 days. The method, then:
FIG. 16. […] 6-week mice were treated with 5 mg/Kg doxorubicin for 5 weeks. […] There are improved ejection fraction, stroke volume, and increased heart and lung weight in itaconate-treated groups compared to saline-treated groups.
FIG. 17. […] 6-week mice were treated with 5 mg/Kg doxorubicin for 5 weeks.

[5] abbreviates: donor mice treated 4-OI 50 mg/kg intraperitoneally 2 hours prior to procurement, 16 hours of preservation, ex vivo perfusion.
[6] abbreviates: compared to saline-treated groups.

As for `C=C(CC(=O)OCCCCCCCC)C(=O)O` [4-OI, 4-octyl itaconate], in the data set with murine donor hearts [1] (setting [5]), the cardiac contractility entry is “improved” and the cardiac relaxation entry was “improved”. In data set [2], the HO1 protein abundance result is “enhanced”, the NRF2 result is reported as “no changes” and the SOD1 protein abundance result is given as “enhanced”. In the data set with murine donor hearts [3], the “NRF2 nuclear translocation in cardiac tissue” value is “increased” and the “oxidative DNA damage (8-OHdG fluorescence)” value is given as “reduced”.

Take `COc1cccc2c1C(=O)c1c(O)c3c(c(O)c1C2=O)C[C@@](O)(C(=O)CO)C[C@@H]3O[C@H]1C[C@H](N)[C@H](O)[C@H](C)O1` [Doxorubicin, doxorubicin]: in the data set with H9C2 cardioblast (immunostaining), the 5-hmC level result is listed as “induces accumulation”.

With `O=C(CCCCCCC(=O)Nc1ccccc1)NO` [SAHA, Suberoylanilide hydroxamic acid], the water solubility result in data set [4] is recorded as “poorly water soluble”. Besides, in the data set on murine donor hearts [1], the “ex vivo donor heart contractility” value is “improved” and the “ex vivo donor heart relaxation” value is “improved”. Moreover, the Irg1 transcript expression result in the data set with Irg1 was “increased”.

Consider `CC(/C=C/C(=O)NO)=C\[C@@H](C)C(=O)c1ccc(N(C)C)cc1` [TSA, Trichostatin A], for which the water solubility entry in data set [4] is “poorly water soluble”. Besides, in the data set with murine donor hearts [1], the “ex vivo donor heart contractility” value is “improved” and the “ex vivo donor heart relaxation” value was “improved”. In the data set with Irg1, the Irg1 transcript expression result is on record as “increased”.

For the compound `C=C(CC(=O)O)C(=O)O` [itaconate], the “murine donor heart function” value in the data set on murine donor hearts [1] (after 16 hours of storage) is listed as “improved”. In addition, the “antioxidant expression (HO1, SOD1)” value in data set [2] (itaconate 10 mM in HTK, normoxic (20% O2) and hypoxic (1% O2), 2 hours) was “increased”. Besides, in data set [2], the HO1 protein abundance result is “enhanced”, the NRF2 result is “no changes” and the SOD1 protein abundance result is reported as “enhanced”. In the data set on mice, the “serum cTnI level” value was “reduced”. Moreover, in the data set on mice (setting [6]), the ejection fraction result is listed as “improved”; the “heart and lung weight” value is “increased”; the stroke volume result is recorded as “improved”. For the same compound, the “cardiomyocyte apoptosis (cleaved caspase 3, western blot)” value in the data set with H9C2 cardioblast (2 mM itaconate, 18 hours) was “reduced”. For the same compound, in the data set with H9C2 cardioblast (2 mM itaconate, immunostaining), the “doxorubicin induced 5-hmC accumulation” value is recorded as “reduce”.
